Source: patent publication US10570099B2, “Salts of an epidermal growth factor receptor kinase inhibitor” (Celgene CAR LLC, priority 2012, dated 2020)
Where a name gives a salt, the structure may show the parent alone. Read-outs that look alike come from different tables or passages of the source.

What was measured:
[1] = Shake flask solubility of potential salts in aqueous medium (pH<2); format: physicochemical; conditions: pH<2, ca. 24 hours shaking, HPLC
Method: The solubility of the potential salts was tested using a shake flask method whereby a slurry of each salt was prepared in deionized water and the pH of the reaction was reduced to below pH 2 by adding a small amount of the counterion used for salt formation. The pH was tested using universal indicator paper.
(§1) (open vials). TGA was carried out after the stability studies for samples containing sufficient material.

[2] = 1 week stability of primary screen salts at 40° C./75% RH and 80° C. (open vials, XRPD); format: physicochemical
Method: as §1

[3] = Dog PK Study 1 (cross-over, fasted); format: in vivo, beagle dogs; conditions: male, beagle, dog, po, plasma compound 1, fasted dogs (n = 3), capsule orally 24.5 mg/kg
Method: Compound 1 free base and compound 2, as the Form I monohydrobromide (HBr) salt, were evaluated in a cross-over dog PK study. Compound 1 free base capsule consisted of compound 1 free base in Vitamin E TPGS and PEG 400 filled into a capsule. The Form I hydrobromide salt capsule consisted of Form I HBr alone filled into a capsule.
Compound 1 free base capsule and Form I HBr capsule were dosed orally at 28.5 and 24.5 mg/kg (as active) QD, respectively, to three fasted male non-naïve beagle dogs (body weight range: 10.1-10.8 kg) with a 5-day washout period. Approximately 5 mL of tap water was orally administered to encourage swallowing and ensure delivery of capsules into the stomach. Plasma samples were collected at pre-dose and 0.5, 1, 2, 4, 6, 8, 12 and 24 hours post dose. The plasma concentrations of compound 1 were determined by a liquid chromatography-tandem mass spectrometry (LC/MS/MS) method.

[4] = Dog PK Study 2 (gastric pH adjustment, food effect); format: in vivo, beagle dogs; conditions: 30 mg/kg, plasma compound 1, dogs (n = 3), capsule orally 30 mg/kg, mean (% CV)
Method: Compound 1 free base and compound 2, as the Form I monohydrobromide (HBr) salt, were evaluated in a cross-over dog PK study in which male dogs were pre-treated with either pentagastrin (to decrease gastric pH) or famotidine (to increase gastric pH) prior to oral dosing to control gastric pH. In addition, the effect of food on the systemic exposure to compound 1 was also evaluated in dogs receiving Form I HBr with pentagastrin pre-treatment. Compound 1 free base capsule consisted of compound 1 free base in Vitamin E TPGS and PEG 400 filled into a capsule. The Form I hydrobromide salt capsule consisted of Form I HBr alone filled into a capsule.
There was a minimum 6-day washout between dosing. On the day of dosing under fed condition, dogs were given 60 gram of a high fat diet (Harlan Teklad 2027C) and allowed to consume all of the food within 15-20 minutes. The animals were given a 10-minute rest period and then the capsule doses were administered. Plasma samples were collected at pre-dose and 0.5, 1, 2, 4, 6, 8, 12 and 24 hours post dose.

[5] = Thermodynamic solubility in media of various pH (HPLC; XRPD of excess solids); conditions: for Thermodynamic Solubility: ca. 24 hours
Method: The remaining solids were also analysed by XRPD analysis to establish if any changes in the solid form occurred.
The remaining solids were also analysed by XRPD analysis to establish if any changes in the solid form occurred. For the buffer solutions, KCl/HCl was used for pH 1 and citrate/phosphate combinations for pH 3, 4.5 and 6.6.
The remaining solids were also analysed by XRPD analysis to establish if any changes in the solid form occurred. For the buffer solutions, KCl/HCl was used for pH 1 and citric acid/sodium citrate combinations for pH 3, 4.5 and 6.2.
The solids were then removed by filtration and tested by XRPD analysis. The mother liquors were analyzed by HPLC to determine API solubility.
For the buffer solutions, KCl/HCl was used for pH 1 and citrate/phosphate combinations for pH 3, 4.5 and 6.6 (10 mM). The pH of the solutions was also measured prior to HPLC analysis.

[6] = Salt disproportionation study (slurry in deionized water); format: physicochemical; conditions: for pH of the supernatant: deionized water slurry; for Disproportionation study, result of slurrying (XRPD): deionized water, ambient
Method: The pH of the supernatant was also monitored.
The hydrobromide salt was slurried in deionised water at ambient temperature (ca. 22° C.). […] The pH of the supernatant was also monitored.

[7] = Intrinsic dissolution of compressed discs; format: physicochemical
Method: A Sotax AT7 dissolution bath (USP 2, EP 2 apparatus) was used for the dissolution study in which paddles were used to stir the media. All tests were carried out at 37° C. and a paddle speed of 100 rpm.
(§2) Approximately 100-120 mg of each form was compressed into discs by placing the material into a die (diameter: 13 mm) and compressing the die under 5 tons of pressure in a hydraulic press for ca. 2 minutes. A Sotax AT7 (conformed to EP2 and USP2) dissolution instrument was used containing paddles to stir the media at 100 rpm. Dissolution media of pH 3 (1% SDS) and pH 4.5 (1% SDS) were prepared using citrate/phosphate buffer. All materials were tested in 750 ml of the buffer medium. Discs were added at time=0 seconds and allowed to sink to the bottom of the dissolution vessel before stirring began. ca. 1 ml aliquots of media were extracted from the dissolution vessels at times 1, 5, 10, 15, 30, 60, 120, 240 minutes and 24 hours, and tested for dissolved salt concentration by HPLC-UV. The dissolution tests were carried out in duplicate. For both dissolution media, the peak areas for the initial time points (up to 15 minutes), fell below the limit of quantification, however, when plotting Dissolution rate vs. time, the steepest part of the curve occurs during these early time points.
as §2, with “material” for “each form”, “API” for “dissolved salt”

[8] = 1 week stability study (XRPD and HPLC); format: physicochemical; conditions: 1 week
Method: (§3) Resulting solids were analysed by XRPD and HPLC to establish if any changes had occurred.
as §3
The resulting solids were analysed by XRPD and HPLC to establish if any changes had occurred.

[9] = Hydration study (slurry in solvent:water mixtures, XRPD); format: physicochemical; conditions: ambient, ca. 3-4 days
Method: The resulting solids were then analyzed by XRPD to determine if any changes had occurred on slurrying.
Slurries of the hydrobromide salt were created in acetone:water mixtures (3%, 5% and 10%) and stirred at ambient for ca. 3 days. The resulting solids were then analysed by XRPD to determine if any changes had occurred on slurrying.
Slurries were created using ca. 200 mg of Form I salt material in 2 mL of the appropriate solvent system. These were stirred at ca. 55° C. for 6 hours.
Slurries were created using ca. 200 mg of Form I salt material in 2 mL of the appropriate solvent system.

[10] = Dynamic vapour sorption (DVS); format: physicochemical
Method: For dynamic vapour sorption (DVS), approximately 10-20 mg of sample was placed into a wire mesh vapour sorption balance pan and loaded into a DVS-1 dynamic vapour sorption balance by Surface Measurement Systems. The sample was subjected to a ramping profile from 20-90% relative humidity (RH) at 10% increments, maintaining the sample at each step until a stable weight had been achieved (99.5% step completion). After completion of the sorption cycle, the sample was dried using the same procedure, but all the way down to 0% RH and finally taken back to the starting point of 20% RH. The weight change during the sorption/desorption cycles were plotted, allowing for the hygroscopic nature of the sample to be determined.

[11] = 40° C./75% RH, closed (crimped) vial

With C=CC(=O)Nc1cccc(Nc2nc(Nc3ccc(N4CCN(C(C)=O)CC4)cc3OC)ncc2C(F)(F)F)c1.O=C(O)c1c(O)cc(O)cc1O [2,4,6-Trihydroxybenzoate Form II] the “Approximate Solubility” value [1] was “Below LOQ”.
For C=CC(=O)Nc1cccc(Nc2nc(Nc3ccc(N4CCN(C(C)=O)CC4)cc3OC)ncc2C(F)(F)F)c1.O=C(O)c1c(O)cc(O)cc1O [2,4,6-Trihydroxybenzoate Form I], the “Stability 40° C./75% RH (open conditions)” value [2] was “No form change,”, the “Stability 80° C. (open conditions)” value [2] was “No form change,” and the “Approximate Solubility” value [1] was “Below LOQ”.
In the case of C=CC(=O)Nc1cccc(Nc2nc(Nc3ccc(N4CCN(C(C)=O)CC4)cc3OC)ncc2C(F)(F)F)c1 [Compound 2 (Form I Hydrobromide)], the half-life ([3]; mean) is reported as 2.4 h, the Cmax ([3]; mean (% CV)) is reported as 1.42 µg/mL and the AUC(0-t) ([3]; mean (% CV), read-out: AUC0-24) is reported as 5.26 µg·h/mL. The Tmax ([3]; median) was 2 h, the AUC(0-t) ([4]; male, beagle, dog, plasma, po, Pentagastrin, fed, read-out: AUC0-24) was 13.9 µg·h/mL and the Cmax ([4]; male, beagle, dog, plasma, po, Pentagastrin, fed, read-out: Cmax) was 3.97 µg/mL. The AUC0-24 ([4]; Famotidine, fasted) was 4010 (54%) ng · h/mL, the Cmax ([4]; Famotidine, fasted) was 1180 (20%) ng/mL and the AUC0-24 ([4]; Pentagastrin, fasted) was 9450 (31%) ng · h/mL. For the same compound, the Cmax ([4]; Pentagastrin, fasted) was 2860 (39%) ng/mL.
In the case of C=CC(=O)Nc1cccc(Nc2nc(Nc3ccc(N4CCN(C(C)=O)CC4)cc3OC)ncc2C(F)(F)F)c1.O=S(=O)(O)c1ccccc1.O=S(=O)(O)c1ccccc1 [bis-besylate salt], the “XRPD of excess solids” value ([5]; pH 1.0, KCl/HCl) is reported as “Diffractogram corresponds with the hydrated”, the “Thermodynamic Solubility” value ([5]; pH 1.0, KCl/HCl buffer) is reported as 4.93 mg/mL and the “XRPD of excess solids” value ([5]; pH 3.0, Citrate/Phosphate) is reported as “Change in diffractogram - does not correspond”. The “Thermodynamic Solubility” value ([5]; pH 3.0, Citrate/Phosphate) was 0.24 mg/mL, the “XRPD of excess solids” value ([5]; pH 3.0, KHP/HCl) was “Change in diffractogram - does not correspond” and the “Thermodynamic Solubility” value ([5]; pH 3.0, KHP/HCl) was 0.26 mg/mL. For the same compound, the “XRPD of excess solids” value ([5]; pH 4.5, Citrate/Phosphate) was “Change in diffractogram - does not correspond”, the “Thermodynamic Solubility” value ([5]; pH 4.5, Citrate/Phosphate) was 0.43 mg/mL and the “XRPD of excess solids” value ([5]; pH 4.5, KHP/NaOH) was “Change in diffractogram - does not correspond”. For the same compound, the “Thermodynamic Solubility” value ([5]; pH 4.5, KHP/NaOH) was 0.10 mg/mL, the “XRPD of excess solids” value ([5]; pH 6.6, Citrate/Phosphate) was “Change in diffractogram - does not correspond” and the “Thermodynamic Solubility” value ([5]; pH 6.6, Citrate/Phosphate) was 0.66 mg/mL. The “XRPD of excess solids” value ([5]; pH 6.6, Phosphate/NaOH) was “Change in diffractogram - does not correspond”, the “Thermodynamic Solubility” value ([5]; pH 6.6, Phosphate/NaOH) was 0.17 mg/mL and the “Stability 40° C./75% RH (open conditions)” value ([2]; listed as Besylate (2 equiv.) Form I) was “Solid/gum present”. The “pH of the supernatant” value ([6]; 1 hr) was “pH 2-3”, the “pH of the supernatant” value ([6]; 24 hrs) was “pH 1-2” and the “pH of the supernatant” value ([6]; 48 hrs) was “pH 1-2”. The “Disproportionation study, result of slurrying (XRPD)” value (“Disproportionation study, result” for short) ([6]; 1 hr) was “Yellow gum present”, the “Disproportionation study, result” value ([6]; 24 hrs) was “Different from starting material, appears to” and the “Disproportionation study, result” value ([6]; 48 hrs) was “Different from starting material, appears to”. For the same compound, the intrinsic dissolution value ([7]; pH 3.0 (1% SDS), early time points, tablet 1) was “approximately 0.36 mg/cm^2/min”, the intrinsic dissolution value ([7]; pH 3.0 (1% SDS), early time points, tablet 2) was ~0.38 mg/cm^2/min and the intrinsic dissolution value ([7]; pH 3.0 (1% SDS), later time points, tablet 1) was 0.08 mg/cm^2/min. The intrinsic dissolution value ([7]; pH 3.0 (1% SDS), later time points, tablet 2) was 0.07 mg/cm^2/min, the intrinsic dissolution value ([7]; pH 4.5 (1% SDS), early time points, tablet 1) was “approximately 0.61 mg/cm^2/min” and the intrinsic dissolution value ([7]; pH 4.5 (1% SDS), early time points, tablet 2) was “approximately 0.61 mg/cm^2/min”. For the same compound, the intrinsic dissolution value ([7]; pH 4.5 (1% SDS), later time points, tablet 1) was 0.09 mg/cm^2/min, the intrinsic dissolution value ([7]; pH 4.5 (1% SDS), later time points, tablet 2) was 0.08 mg/cm^2/min and the “HPLC purity after storage” value [8, 11] was 97.35%. For the same compound, the XRPD after storage [8, 11] was “No change in polymorphic form”, the “HPLC purity after storage” value ([8]; 40° C./75% RH, open vial) was 97.22% and the XRPD after storage ([8]; 40° C./75% RH, open vial) was “Change in polymorphic form,”. For the same compound, the “HPLC purity after storage” value ([8]; 80° C., open vial) was 97.20%, the XRPD after storage ([8]; 80° C., open vial) was “Corresponds predominantly with input” and the “Hydration study, result of slurrying” value ([9]; Acetone:water (3%)) was “Corresponds with the input bis-”. The “Hydration study, result of slurrying” value ([9]; Acetone:water (10%)) was “Different from the bis-besylate input”, the “post DVS XRPD analysis (polymorphic form)” value ([10]; after DVS cycles) was “change in polymorphic form” and the “water uptake (DVS)” value ([10]; between 20 and 70% RH) was “ca. 2.2%”.
